Assays:
Experiment in all cases: relative viability (nuclei count vs DMSO), 5 days (fraction); higher = more cells survive
[1] = compound: OCc1c[nH]c2ccccc12 [Indole-3-carbinol] + CC(=O)c1c(C)c2cnc(Nc3ccc(N4CCNCC4)cn3)nc2n(C2CCCC2)c1=O [Palbociclib] (partner 0.5 µM)
How it was run: (§1)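 Lung cancer cell lines, seeded in 1536-well plates, were treated the following day by pin tool with a single drug or with five library-drug doses (not always all listed) in √10 steps on top of a fixed anchor-drug dose. Cells were fixed and nuclei stained in one step after 5 days, and nuclei were counted. Relative viability is the nuclei count for treated wells divided by that for vehicle wells, reported as medians of duplicate plates.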

[2] = compound: OCc1c[nH]c2ccccc12 [Indole-3-carbinol] + CS(=O)(=O)CCNCc1ccc(-c2ccc3ncnc(Nc4ccc(OCc5cccc(F)c5)c(Cl)c4)c3c2)o1 [Lapatinib] (partner 2 µM)
How it was run: as §1

[3] = compound: OCc1c[nH]c2ccccc12 [Indole-3-carbinol] + O=C(c1cc(Cc2n[nH]c(=O)c3ccccc23)ccc1F)N1CCN(C(=O)C2CC2)CC1 [Olaparib] (partner 8 µM)
How it was run: as §1

[4] = compound: OCc1c[nH]c2ccccc12 [Indole-3-carbinol] + N=C(N)NC(=N)NCCc1ccccc1 [Phenformin] (partner 250 µM)
How it was run: as §1

[5] = compound: OCc1c[nH]c2ccccc12 [Indole-3-carbinol] + Nc1nc2[nH]cc(CCc3ccc(C(=O)N[C@@H](CCC(=O)O)C(=O)O)cc3)c2c(=O)[nH]1 [Pemetrexed] (partner 0.2 µM)
How it was run: as §1

Row | Cell Line | relative viability ([1]; first compound 0.253 µM) | relative viability ([1]; first compound 0.8 µM) | relative viability ([1]; first compound 2.53 µM) | relative viability ([1]; first compound 8 µM) | relative viability ([2]; first compound 0.253 µM) | relative viability ([2]; first compound 0.8 µM) | relative viability ([2]; first compound 2.53 µM) | relative viability ([2]; first compound 8 µM) | relative viability ([3]; first compound 0.253 µM) | relative viability ([3]; first compound 0.8 µM) | relative viability ([3]; first compound 2.53 µM) | relative viability ([3]; first compound 8 µM) | relative viability ([4]; first compound 0.253 µM) | relative viability ([4]; first compound 0.8 µM) | relative viability ([4]; first compound 2.53 µM) | relative viability ([4]; first compound 8 µM) | relative viability ([5]; first compound 0.253 µM) | relative viability ([5]; first compound 0.8 µM) | relative viability ([5]; first compound 2.53 µM) | relative viability ([5]; first compound 8 µM)
1 | NCI-H3122 | 0.188 | 0.196 | 0.176 | 0.183 | 1.05 | 1.01 | 1.04 | 1.05 | 0.65 | 0.612 | 0.495 | 0.538 | 0.391 | 0.364 | 0.413 | 0.381 | 0.195 | 0.21 | 0.203 | 0.203
2 | PC-3 [JPC-3] | 0.574 | 0.568 | 0.557 | 0.507 | 0.462 | 0.441 | 0.399 | 0.439 | 1.17 | 1.29 | 1.11 | 1.03 | 0.477 | 0.483 | 0.483 | 0.473 | 1.17 | 1.16 | 0.958 | 1.15
3 | PC-14 | 0.538 | 0.509 | 0.541 | 0.462 | 0.288 | 0.321 | 0.342 | 0.266 | 0.292 | 0.285 | 0.268 | 0.221 | 0.586 | 0.536 | 0.582 | 0.5 | 0.14 | 0.127 | 0.13 | 0.146
4 | RERF-LC-KJ | 1.14 | 0.968 | 0.941 | 1.15 | 0.866 | 0.891 | 0.802 | 0.787 | 0.878 | 0.93 | 0.957 | 0.801 | 0.392 | 0.415 | 0.428 | 0.401 | 0.47 | 0.461 | 0.482 | 0.466
5 | SK-LU-1 | 0.404 | 0.36 | 0.383 | 0.372 | 0.941 | 0.903 | 1.06 | 0.829 | 0.478 | 0.438 | 0.569 | 0.589 | 0.582 | 0.57 | 0.58 | 0.534 | 1.02 | 1.03 | 1.09 | 1.02
6 | SK-MES-1 | 0.292 | 0.299 | 0.318 | 0.313 | 0.455 | 0.501 | 0.452 | 0.421 | 0.758 | 0.888 | 0.632 | 0.615 | 0.689 | 0.733 | 0.693 | 0.61 | 0.926 | 1.01 | 0.927 | 0.939
7 | SW 1573 | 0.377 | 0.41 | 0.449 | 0.37 | 1.2 | 1.05 | 1.16 | 1.08 | 0.499 | 0.526 | 0.546 | 0.479 | 0.34 | 0.449 | 0.404 | 0.363 | 0.803 | 0.846 | 0.881 | 0.975
8 | UMC-11 | 0.338 | 0.34 | 0.319 | 0.32 | 1.03 | 0.953 | 0.91 | 0.951 | 0.549 | 0.359 | 0.499 | 0.944 | 0.33 | 0.319 | 0.339 | 0.324 | 0.787 | 0.757 | 0.751 | 0.717

Source: the supplement of paper PMC10307832
